Reference: ChEMBL document CHEMBL3137667, “[Drug-induced liver injury; fourteenth updated edition of the bibliographic database of liver injuries and related drugs]” (Gastroenterol Clin Biol, 2004)

How the values were obtained:
[1] = Highest frequency of moderate liver toxicity observed during clinical trials, expressed as a percentage. [column '% BIOL' in source]; settings: human
[2] = Highest frequency of acute liver toxicity observed during clinical trials, expressed as a percentage. [column '% AIGUE' in source]; settings: human
[3] = Presence of at least one case with successful reintroduction. [column 'REINT' in source]; settings: human
[4] = Comments (NB not yet translated). [column 'COMMENTAIRES' in source]; settings: human
[5] = Times to onset, minimal and maximal, observed in the indexed observations. [column 'DELAI' in source]; settings: human
[6] = Proposed mechanism(s) of liver damage. [column 'MEC' in source]; settings: human
[7] = human, serum
[8] = human, serum; remark: listed apart in the source
[9] = human
[10] = human; remark: listed apart in the source
[11] = human; remark: listed apart in the source
[12] = human, serum, 4383 h
[13] = human; remark: listed apart in the source
[14] = human; remark: listed apart in the source
[15] = human; remark: listed apart in the source
[16] = human; remark: listed apart in the source
[17] = human; remark: listed apart in the source
[18] = human; remark: listed apart in the source
[19] = human; remark: listed apart in the source
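Throughout, for Hepatotoxicity (association with vascular disease): count of indexed literature references reporting vascular liver injury in humans, e.g. peliosis hepatitis, hepatic veno-occlusive disease or Budd-Chiari syndrome.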
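Throughout, for Hepatotoxicity (benign tumour): value is a count of indexed literature references citing a benign tumour confirmed by histopathology.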
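Throughout, for Hepatotoxicity (choleostasis): human cholestatic liver injury, shown by histopathology or by peak ALT or AST elevation over alkaline phosphatase ratio below 2, value counts indexed literature reports.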
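Throughout, for Hepatotoxicity (chronic liver disease): chronic liver injury confirmed by histopathology or persistently raised serum aminotransferase activity beyond 6 months, value given as the count of indexed literature references.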
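Throughout, for Hepatotoxicity (cirrhosis): value is a count of indexed literature references reporting cirrhosis confirmed by histopathology.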
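Throughout, for Hepatotoxicity (cytolytic): human cytolytic liver injury, shown by histopathology or by a ratio above 5 of peak ALT or AST elevation to alkaline phosphatase elevation, value counts indexed references.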
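Throughout, for Hepatotoxicity (granulomatous hepatitis): value is a count of indexed literature references reporting granulomatous liver disease confirmed by histopathology.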
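Throughout, for Hepatotoxicity (malignant tumour): malignant tumour confirmed by histopathology, value gives the count of indexed literature references reporting it.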
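Throughout, for Hepatotoxicity (severe hepatitis): human clinical data: severe hepatitis, meaning potentially life-threatening liver failure or clinically observed cases, the value counts how many indexed literature references report it.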
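Throughout, for Hepatotoxicity (steatosis): steatosis confirmed by histopathology, value is the count of indexed references.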

SMILES	Hepatotoxicity (moderate) [1] [%]	Hepatotoxicity (acute) [2] [%]	Hepatotoxicity (successful reintroduction) [3]	Hepatotoxicity (comment) [4]	Hepatotoxicity (time to onset) [5]	Hepatotoxicity (mechanism) [6]	Hepatotoxicity (moderate) [7]	Hepatotoxicity (acute) [8]	Hepatotoxicity (cytolytic) [9]	Hepatotoxicity (choleostasis) [10]	Hepatotoxicity (severe hepatitis) [11]	Hepatotoxicity (chronic liver disease) [12]	Hepatotoxicity (cirrhosis) [13]	Hepatotoxicity (granulomatous hepatitis) [14]	Hepatotoxicity (association with vascular disease) [15]	Hepatotoxicity (steatosis) [16]	Hepatotoxicity (malignant tumour) [17]	Hepatotoxicity (benign tumour) [18]	Hepatotoxicity (animal toxicity known) [19]	Hepatotoxicity (moderate) ([1]; Liver) [%]	also measured
CN(Cc1cnc2nc(N)nc(N)c2n1)c1ccc(C(=O)N[C@@H](CCC(=O)O)C(=O)O)cc1 [METHOTREXATE]	88	35	yes	I/ETRETINATE REACTIVATION_HVB SHNA MVO	4 hours - 16 years	Dose-dependant	173	26	21	2	5	45	42	8	5	16	8	0	yes	–	–
Cn1cnc([N+](=O)[O-])c1Sc1ncnc2nc[nH]c12 [AZATHIOPRINE]	–	–	yes	HNR REACTIVATION_HVB CHOLANGITE MVO PELIOSE	2 hours - 8 years	–	40	61	–	–	–	3	4	–	27	3	6	18	yes	28	Hepatotoxicity (acute) ([2]; Liver): 11.1%; Hepatotoxicity (mechanism) ([6]; Liver): Allergic, Dose-dependant; Hepatotoxicity (cytolytic) ([9]; Liver): 19; Hepatotoxicity (choleostasis) ([10]; Liver): 34; Hepatotoxicity (severe hepatitis) ([11]; Liver): 5; Hepatotoxicity (granulomatous hepatitis) ([14]; Liver): 2
CNC(=O)OCc1cccc(COC(=O)NC)n1 [PYRICARBATE]	10	0.7	yes	AC_ANTI-MFR/-ML	2 weeks - 6 months	Allergic	4	9	8	4	3	0	0	0	0	0	0	0	A	–	–
CN/C(=N/CCSCc1nc[nH]c1C)NC#N [CIMETIDINE]	–	–	yes	RC/FAMOTIDINE I/MEBENDAZOLE	2 days - 2 years	–	29	28	–	–	–	1	0	–	0	0	0	0	yes	38	Hepatotoxicity (acute) ([2]; Liver): 0%; Hepatotoxicity (mechanism) ([6]; Liver): Allergic, Dose-dependant, Toxic Metabolite; Hepatotoxicity (cytolytic) ([9]; Liver): 20; Hepatotoxicity (choleostasis) ([10]; Liver): 10; Hepatotoxicity (severe hepatitis) ([11]; Liver): 3; Hepatotoxicity (granulomatous hepatitis) ([14]; Liver): 0
CC(C)C(=O)Nc1ccc([N+](=O)[O-])c(C(F)(F)F)c1 [FLUTAMIDE]	41.2	10	yes	AC_ANTI-N	3 days - 10 months	Allergic, Reactive metabolite, Dose-dependant	21	31	21	7	16	0	0	0	0	0	0	0	yes	–	–
NNC(=O)c1ccncc1 [ISONIAZID]	51.2	26.7	yes	I/CARBAMAZE/ENFLURANE/PARACETAMOL/RIFAMPICINE/RIFAMYCINE/VALPROATE	1 day - 1 year	Dose-dependant, Reactive metabolite	60	91	61	11	40	3	4	1	0	1	0	0	yes	–	–
